Results: ChEMBL document CHEMBL2074173, “Organic anion-transporting polypeptide B (OATP-B) and its functional comparison with three other OATPs of human liver” (Gastroenterology, 2001)
Where a SMILES comes first, the peptide text is derived from it. [ ]: non-standard residue; d: D form.

B1: Solute carrier organic anion transporter family member 2B1 (Homo sapiens) (protein)
chain: MGPRIGPAGEVPQVPDKETKATMGTENTPGGKASPDPQDVRPSVFHNIKLFVLCHSLLQLAQLMISGYLKSSISTVEKRFGLSSQTSGLLASFNEVGNTALIVFVSYFGSRVHRPRMIGYGAILVALAGLLMTLPHFISEPYRYDNTSPEDMPQDFKASLCLPTTSAPASAPSNGNCSSYTETQHLSVVGIMFVAQTLLGVGGVPIQPFGISYIDDFAHNSNSPLYLGILFAVTMMGPGLAFGLGSLMLRLYVDINQMPEGGISLTIKDPRWVGAWWLGFLIAAGAVALAAIPYFFFPKEMPKEKRELQFRRKVLAVTDSPARKGKDSPSKQSPGESTKKQDGLVQIAPNLTVIQFIKVFPRVLLQTLRHPIFLLVVLSQVCLSSMAAGMATFLPKFLERQFSITASYANLLIGCLSFPSVIVGIVVGGVLVKRLHLGPVGCGALCLLGMLLCLFFSLPLFFIGCSSHQIAGITHQTSAHPGLELSPSCMEACSCPLDGFNPVCDPSTRVEYITPCHAGCSSWVVQDALDNSQVFYTNCSCVVEGNPVLAGSCDSTCSHLVVPFLLLVSLGSALACLTHTPSFMLILRGVKKEDKTLAVGIQFMFLRILAWMPSPVIHGSAIDTTCVHWALSCGRRAVCRYYNNDLLRNRFIGLQFFFKTGSVICFALVLAVLRQQDKEARTKESRSSPAVEQQLLVSGPGKKPEDSRV
B2: Solute carrier organic anion transporter family member 1B1 (Homo sapiens) (protein)
chain: MDQNQHLNKTAEAQPSENKKTRYCNGLKMFLAALSLSFIAKTLGAIIMKSSIIHIERRFEISSSLVGFIDGSFEIGNLLVIVFVSYFGSKLHRPKLIGIGCFIMGIGGVLTALPHFFMGYYRYSKETNINSSENSTSTLSTCLINQILSLNRASPEIVGKGCLKESGSYMWIYVFMGNMLRGIGETPIVPLGLSYIDDFAKEGHSSLYLGILNAIAMIGPIIGFTLGSLFSKMYVDIGYVDLSTIRITPTDSRWVGAWWLNFLVSGLFSIISSIPFFFLPQTPNKPQKERKASLSLHVLETNDEKDQTANLTNQGKNITKNVTGFFQSFKSILTNPLYVMFVLLTLLQVSSYIGAFTYVFKYVEQQYGQPSSKANILLGVITIPIFASGMFLGGYIIKKFKLNTVGIAKFSCFTAVMSLSFYLLYFFILCENKSVAGLTMTYDGNNPVTSHRDVPLSYCNSDCNCDESQWEPVCGNNGITYISPCLAGCKSSSGNKKPIVFYNCSCLEVTGLQNRNYSAHLGECPRDDACTRKFYFFVAIQVLNLFFSALGGTSHVMLIVKIVQPELKSLALGFHSMVIRALGGILAPIYFGALIDTTCIKWSTNNCGTRGSCRTYNSTSFSRVYLGLSSMLRVSSLVLYIILIYAMKKKYQEKDINASENGSVMDEANLESLNKNKHFVPSAGADSETHC

Experiments:
[1] = molecular target: T1, Solute carrier organic anion transporter family member 1B3 (Homo sapiens, UniProt Q9NPD5); assay: (§1) TP_TRANSPORTER: uptake in Xenopus laevis oocytes; format: functional, cell-based, Oocyte; details: oocyte
T1 sequence (Q9NPD5 whole entry): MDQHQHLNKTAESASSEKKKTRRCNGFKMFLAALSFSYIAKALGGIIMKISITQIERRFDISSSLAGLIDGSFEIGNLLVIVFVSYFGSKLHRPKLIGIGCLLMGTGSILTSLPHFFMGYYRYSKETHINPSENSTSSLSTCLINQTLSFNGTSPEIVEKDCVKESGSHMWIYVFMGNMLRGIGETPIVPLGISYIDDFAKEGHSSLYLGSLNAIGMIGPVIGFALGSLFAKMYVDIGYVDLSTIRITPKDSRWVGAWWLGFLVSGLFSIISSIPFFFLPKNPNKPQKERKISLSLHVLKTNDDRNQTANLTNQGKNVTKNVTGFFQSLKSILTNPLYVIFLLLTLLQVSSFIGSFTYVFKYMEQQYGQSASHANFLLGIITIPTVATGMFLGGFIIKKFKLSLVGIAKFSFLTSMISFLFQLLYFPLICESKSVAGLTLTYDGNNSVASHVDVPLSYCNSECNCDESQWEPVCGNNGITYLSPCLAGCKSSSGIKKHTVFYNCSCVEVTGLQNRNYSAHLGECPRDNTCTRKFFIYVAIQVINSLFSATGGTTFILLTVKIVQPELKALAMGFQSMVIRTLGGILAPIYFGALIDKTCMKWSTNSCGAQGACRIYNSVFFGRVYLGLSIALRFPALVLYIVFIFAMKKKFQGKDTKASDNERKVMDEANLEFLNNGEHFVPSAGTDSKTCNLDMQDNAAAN

[2] = molecular target: T2, Solute carrier organic anion transporter family member 1A2 (Homo sapiens, UniProt P46721); assay: as §1; format: functional, cell-based; details: oocyte
T2 sequence (P46721 whole entry): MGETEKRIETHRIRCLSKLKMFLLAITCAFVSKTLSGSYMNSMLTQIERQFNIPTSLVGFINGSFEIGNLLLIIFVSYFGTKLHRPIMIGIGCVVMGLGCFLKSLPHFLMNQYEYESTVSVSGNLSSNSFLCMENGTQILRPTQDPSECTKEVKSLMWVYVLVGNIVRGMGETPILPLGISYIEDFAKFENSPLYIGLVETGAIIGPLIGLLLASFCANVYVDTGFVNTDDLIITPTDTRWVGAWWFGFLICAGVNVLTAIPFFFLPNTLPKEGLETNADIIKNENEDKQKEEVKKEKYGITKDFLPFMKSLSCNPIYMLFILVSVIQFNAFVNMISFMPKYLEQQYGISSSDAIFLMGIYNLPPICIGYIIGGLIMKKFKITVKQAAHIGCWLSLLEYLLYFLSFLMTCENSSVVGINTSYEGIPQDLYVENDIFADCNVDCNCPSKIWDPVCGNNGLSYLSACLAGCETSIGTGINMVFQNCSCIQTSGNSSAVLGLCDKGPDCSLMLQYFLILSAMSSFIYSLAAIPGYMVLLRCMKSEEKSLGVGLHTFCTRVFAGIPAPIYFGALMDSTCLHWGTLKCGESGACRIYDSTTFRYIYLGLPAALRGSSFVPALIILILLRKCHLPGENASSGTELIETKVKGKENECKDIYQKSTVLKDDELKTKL

[3] = molecular target: T3, Solute carrier organic anion transporter family member 2B1 (Homo sapiens, UniProt O94956); assay: as §1; format: functional, cell-based; details: oocyte
T3 sequence (O94956 whole entry): B1 chain

[4] = molecular target: T4, Solute carrier organic anion transporter family member 1B1 (Homo sapiens, UniProt Q9Y6L6); assay: as §1; format: functional, cell-based; details: oocyte
T4 sequence (Q9Y6L6 whole entry): B2 chain

[5] = molecular target: T5, Solute carrier organic anion transporter family member 1B3 (OATP1B3, SLCO1B3) (Homo sapiens, UniProt Q9NPD5); assay: as §1; format: functional, cell-based, Oocyte; details: Xenopus laevis oocytes expressing the transporter
T5 sequence (Q9NPD5 whole entry): T1 sequence (Q9NPD5 whole entry)

[6] = substrate: O=C1OC(c2ccc(O)c(S(=O)(=O)O)c2)(c2ccc(O)c(S(=O)(=O)O)c2)c2c(Br)c(Br)c(Br)c(Br)c21; assay: as §1; format: functional, cell-based, Oocyte

Molecule | Activity [1] | Activity [2] | further results
N[C@@H](Cc1cc(I)c(Oc2cc(I)c(O)c(I)c2)c(I)c1)C(=O)O [LEVOTHYROXINE] | substrate [+] | – | –
CCCCC[C@H](O)/C=C/[C@H]1[C@H](O)CC(=O)[C@@H]1C/C=C\CCCC(=O)O [DINOPROSTONE] | – | substrate [+] | –
C[C@]12CC[C@@H]3c4ccc(OS(=O)(=O)O)cc4CC[C@H]3[C@@H]1CCC2=O [ESTRONE SULFURIC ACID] | substrate [+] | – | Activity [3]: substrate [+]
C[C@H](CCC(=O)NCC(=O)O)[C@H]1CC[C@H]2[C@@H]3[C@H](O)C[C@@H]4C[C@H](O)CC[C@]4(C)[C@H]3C[C@H](O)[C@]12C [GLYCOCHOLIC ACID] | substrate [+] | substrate [+] | Activity [4]: substrate [+]
C[C@@H]1O[C@@H](O[C@H]2C[C@@H](O)[C@]3(CO)[C@H]4[C@H](O)C[C@]5(C)[C@@H](C6=CC(=O)OC6)CC[C@]5(O)[C@@H]4CC[C@]3(O)C2)[C@H](O)[C@H](O)[C@H]1O [OUABAIN] | substrate [+] | substrate [+] | –
N[C@@H](Cc1cc(I)c(Oc2ccc(O)c(I)c2)c(I)c1)C(=O)O [LIOTHYRONINE] | substrate [+] | – | –
CC1(C)SSC(C)(C)[C@@H](NC(=O)[C@@H](N)Cc2ccc(O)cc2)C(=O)NCC(=O)N[C@@H](Cc2ccccc2)C(=O)N[C@H]1C(=O)O | substrate [+] | – | Activity [4]: substrate [+]
CC(C)C[C@@H]1NC(=O)[C@@H](C(C)C)NC(=O)[C@@H]2CCCN2C(=O)[C@@H](CC(=O)O)NC(=O)[C@@H](Cc2c[nH]c3ccccc23)NC1=O [BQ-123] (cyclo(L[dW][dD]P[dV])) | substrate [+] | substrate [+] | Activity [4]: substrate [+]
CCCCC/C=C\C\C=C/C=C/C=C/[C@@H](SC[C@@H](NC(=O)CC[C@H](N)C(=O)O)C(=O)NCC(=O)O)[C@@H](O)CCCC(=O)O [LEUKOTRIEN C4] | substrate [+] | – | –
CC(C)[C@H](NC(=O)[C@H](CCC(=O)O)NC(=O)[C@H](Cc1ccccc1)NC(=O)[C@@H](C)NC(=O)[C@@H](N)Cc1ccc(O)cc1)C(=O)N[C@H](C(=O)NCC(N)=O)C(C)C [DELTORPHIN II] | substrate [+] | – | –
C[C@]12CC[C@H](OS(=O)(=O)O)CC1=CC[C@@H]1[C@@H]2CC[C@]2(C)C(=O)CC[C@@H]12 [PRASTERONE SULFURIC ACID] | substrate [+] | – | Activity [3]: substrate [+]
C[C@]12CC[C@@H]3c4ccc(O)cc4CC[C@H]3[C@@H]1CC[C@@H]2O[C@@H]1O[C@H](C(=O)O)[C@@H](O)[C@H](O)[C@H]1O [ESTRADIOL 17B GLUCURONIDE] | substrate [+] | substrate [+] | –
O=C1OC(c2ccc(O)c(S(=O)(=O)O)c2)(c2ccc(O)c(S(=O)(=O)O)c2)c2c(Br)c(Br)c(Br)c(Br)c21 [SULFOBROMOPHTHALEIN SODIUM] | – | – | Km [5]: 0.4 µM
B1 | – | – | Km [6]: 0.7 µM
B2 | – | – | Km [6]: 0.3 µM
